These are literature values, as cited in patent US9554996B2, “Compositions and methods for delivery of poorly soluble drugs” (Nanotherapeutics, Inc., priority 2007, dated 2017).

Structures can show the parent of a compound that is named as a salt.

Broadly, the solubility is how much of the substance goes into solution per volume.

For this series the following is noted: water.

On to `COc1ccc2c3c1O[C@H]1C(=O)CC[C@@]4(O)[C@@H](C2)N(C)CC[C@]314` [oxycodone hydrochloride, oxycodone], for which the “solubility at neutral pH” value is 100 mg/ml.
